Source: paper PMC12463120, “Phenylalanine‐Based DNA‐Encoded Chemical Libraries for the Discovery of Potent and Selective Small Organic Ligands Against Markers of Cancer and Immune Cells” (Advanced Science, 2025)
One block for each compound: values may come before it.

Columns and labels:
[1] = molecular target: T1, hCAIX (Homo sapiens, UniProt Q16790); experiment: Surface plasmon resonance (SPR) on hCAIX; assay type: binding; conditions: for Kd: 500 nM to 250 nM, CM5 chip
T1 construct: made in house; host or cells: CHO cells
Experimental: 2.14 Surface plasmon resonance (SPR)
SPR measurements were performed on a Biacore X100. Human recombinant ACP3 or CAIX were immobilized on a CM5 chip (Cytiva, #BR100012, both flow cells), reaching ~4000 RUs, using the EDC/NHS protocol provided by the manufacturer. The target protein immobilized on the reference flow cell was treated with denaturing solution (0.85% H3PO4, 10 mM NaOH, and 50 mM HCl). PBS (pH 7.4) was used as running buffer. Test compounds were injected at different concentrations in running buffer, according to a multicycle analysis with the following settings: 120 seconds contact time and 5´000 seconds (CAIX measurements) or 15´ 000 seconds (ACP3 measurements) dissociation time at a flow rate of 10 μL/min. Sensograms were plotted with GraphPad Prism (version 9, GraphPad Software) and fitted using the Biacore X100 Evaluation Software. […]
30 min at rt and washed with PBS (3 x 200 μL/well). The immobilized protein was incubated for 30 min in the dark with serial dilution of FITC-labelled compounds and washed with PBS (3 x 200 μL/well). A solution of rabbit polyclonal FITC antibody-horseradish peroxidase (anti-FITC-HRP, Abcam, #ab196968) 0.25 μg/mL in 2% milk-PBS was added to each well (100 μL/well) and incubated for additional 30 min in the dark at rt. Each well was washed with PBS 0.1% Tween (3 x 200 μL/ well) and with PBS (3 x 200 μL/ well). The substrate 3,3′,5,5′ -tetramethylbenzidine (TMB, Sigma Aldrich #T0440) was added (100 μL /well) and developed in the dark for 0.5-1 min. The reaction was stopped by adding 50 μL of an aqueous solution of H2SO4 1M. The absorbance was measured at 450 nm (reference level, 620–650 nm) with a Spark multimode microplate reader (Tecan Life Sciences). The experiments were […]

[2] = molecular target: T2, PSMA (Homo sapiens, UniProt Q04609); experiment: Fluorescence polarization (FP) affinity against PSMA; assay type: binding; conditions: fluoresceinated compounds
T2 construct: Avi-tag; made in house; host or cells: CHO cells
T2 sequence (Q04609 whole entry): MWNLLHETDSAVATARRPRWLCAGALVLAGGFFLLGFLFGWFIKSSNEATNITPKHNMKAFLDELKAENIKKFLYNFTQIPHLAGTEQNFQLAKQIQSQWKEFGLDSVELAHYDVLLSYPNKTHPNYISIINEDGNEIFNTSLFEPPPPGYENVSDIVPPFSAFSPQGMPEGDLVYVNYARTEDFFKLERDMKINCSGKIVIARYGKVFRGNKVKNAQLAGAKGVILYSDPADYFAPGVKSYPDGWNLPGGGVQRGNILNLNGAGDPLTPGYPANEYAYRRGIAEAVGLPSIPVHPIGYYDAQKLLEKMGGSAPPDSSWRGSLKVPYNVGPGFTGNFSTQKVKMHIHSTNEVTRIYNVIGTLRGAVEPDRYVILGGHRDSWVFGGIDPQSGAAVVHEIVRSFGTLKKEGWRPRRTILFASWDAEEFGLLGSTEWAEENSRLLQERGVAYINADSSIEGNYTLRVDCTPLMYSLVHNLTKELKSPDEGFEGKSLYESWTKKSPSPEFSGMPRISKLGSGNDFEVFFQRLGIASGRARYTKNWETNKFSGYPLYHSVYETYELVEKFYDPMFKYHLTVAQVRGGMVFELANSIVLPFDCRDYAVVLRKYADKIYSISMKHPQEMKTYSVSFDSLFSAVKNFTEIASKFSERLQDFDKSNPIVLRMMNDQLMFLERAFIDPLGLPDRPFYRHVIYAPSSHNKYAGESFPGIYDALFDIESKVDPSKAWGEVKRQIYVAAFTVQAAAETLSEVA
Experimental: (§1) Hits obtained from FM‐DEL1 (A1452 and A3113) and FM‐DEL2 (A3113/B423) were re‐synthesized as stereo‐chemically pure off‐DNA compounds derivatized with a C6 linker featuring a fluorescein moiety (coupled to fluorescein isothiocyanate‐FITC) (compounds 1–6) [Figure 2E]. The binding affinity against PSMA and GCP3 (KD) of fluoresceinated compounds 1–6 was measured by fluorescence polarization (FP). […] The superiority of compound 5 (S‐configuration) in binding PSMA over compound 6 (R‐configuration) was confirmed by molecular docking studies [Figure S48, Supporting Information]. […] The presence of the sole building block A3113 on the 3‐iodo‐phenylalanine scaffold in the S‐configuration gives adequate selectivity for PSMA over GCP3. The addition of the second building block (B423) enhances both affinity and selectivity for the target.
(§2) Selection results were decoded with C++^[ [61] ^] and visualized using MATLAB R2019b (MathWorks). EFs were calculated by dividing the DNA sequence counts for each hit compound by the average DNA sequence count from the corresponding DEL screening. Additionally, Z‐score values were calculated following methods previously published,^[ [60] ^] as present in Supporting Information. […] Affinities of fluorescein‐bearing hits were determined by FP or ELISA measurements. […] Binding kinetics were assessed on a Biacore X100 instrument with the target protein immobilized on a CM5 chip at 4′000 RUs. Cell binding of fluorescent ligands was evaluated using flow cytometry against antigen‐positive and antigen‐negative (wild‐type) cancer cells. in vitro tissue uptake of ^177Lu‐labelled DOTAGA PSMA‐radioligands was measured via autoradiography. […]
(§3) The protein was then concentrated using Vivaspin® 20 centrifugal concentrators (30’000 Da molecular weight cutoff, Sartorius, #VS2012) and then purified by SEC or PD-10 column. The fractions were measured (absorption at 280 nm) on a Nanodrop 2000 Spectrophotometer to combine protein-containing fractions. […]
(§4) 2.11 Fluorescence polarization (FP) measurements with fluoresceine-labelled […]

[3] = test system: HT-1080.hPSMA tumor cells; experiment: Flow cytometry on HT-1080.hPSMA cells; assay type: cell-based; conditions: 250 nM
Experimental: (§5) Selection results were decoded with C++^[ [61] ^] and visualized using MATLAB R2019b (MathWorks). EFs were calculated by dividing the DNA sequence counts for each hit compound by the average DNA sequence count from the corresponding DEL screening. Additionally, Z‐score values were calculated following methods previously published,^[ [60] ^] as present in Supporting Information. Hit compounds with high EFs in the target protein selections and low EFs in the negative controls (anti‐target and streptavidin selections) were selected for hit validation activities. All compounds were synthesized using either solid‐phase peptide synthesis or solution‐phase methodologies. Affinities of fluorescein‐bearing hits were determined by FP or ELISA measurements. […] ACP3 colorimetric inhibition assay was performed with serially diluted compounds at a fixed concentration (5 mM in PBS) of para‐nitrophenyl phosphate as substrate. Binding kinetics were assessed on a Biacore X100 instrument with the target protein immobilized on a CM5 chip at 4′000 RUs. Cell binding of fluorescent ligands was evaluated using flow cytometry against antigen‐positive and antigen‐negative (wild‐type) cancer cells. in vitro tissue uptake of ^177Lu‐labelled DOTAGA PSMA‐radioligands was measured via autoradiography. Prism 9 software (GraphPad Software) was used for data analysis of FP, ELISA, PD‐10, SPR, and enzymatic assay measurements. SPR sensograms were fitted with the Biacore X100 Evaluation Software. Flow cytometry data was processed with the FlowJo 10.4 software.
HT1080.hPSMA and PC3.hACP3 cell lines were generated by lentiviral transduction on wild type cells (HT1080.wt and PC3.wt), according to published procedures9. […]
Cancer cells were detached with an Accutase® cell detachment solution, resuspended in a standard culture medium, and transferred to falcon tubes. Cells were counted and centrifuged at 400 rcf for 3 min. […] Data were acquired halting the measurement at 10´ 000 events on a Cytoflex S flow cytometer (Beckman Coulter), and analyzed using the FlowJo software v10 (BD Biosciences). […]

[4] = molecular target: T3, recombinant human ACP3 (Homo sapiens, UniProt P15309); experiment: Fluorescence polarization (FP) affinity against human ACP3; assay type: binding; conditions: PSMA ligands as negative controls
T3 construct: made in house; host or cells: CHO cells
T3 sequence (P15309 33-386): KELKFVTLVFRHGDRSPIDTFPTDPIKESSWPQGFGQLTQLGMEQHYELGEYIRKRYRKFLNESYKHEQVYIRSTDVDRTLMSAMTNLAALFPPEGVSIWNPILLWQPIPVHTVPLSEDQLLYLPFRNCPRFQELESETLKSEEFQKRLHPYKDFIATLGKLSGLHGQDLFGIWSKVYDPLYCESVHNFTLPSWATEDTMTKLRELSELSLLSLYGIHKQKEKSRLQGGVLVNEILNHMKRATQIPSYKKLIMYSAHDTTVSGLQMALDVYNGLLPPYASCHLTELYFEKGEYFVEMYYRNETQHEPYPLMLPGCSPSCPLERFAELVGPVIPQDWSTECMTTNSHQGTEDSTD
Experimental: as §5, with “SPR sensograms were fitted with the Biacore X100 Evaluation Software. Flow cytometry data was processed with the FlowJo 10.4 software.” left out
as §3
Protein dissolved in PBS or HEPES buffer was incubated for 30-60 min with 5 equiv. of EZ-LinkTM NHS-LC-Biotin (Thermo Fisher Scientific, #21336). […] The fractions were measured (absorption at 280 nm) on a Nanodrop 2000 Spectrophotometer to combine protein-containing fractions. […]
as §4

[5] = molecular target: T4, human CAIX (hCAIX) (Homo sapiens, UniProt Q16790); experiment: Fluorescence polarization (FP) affinity against hCAIX; assay type: binding; conditions: fluorescein derivatives
T4 construct: made in house; host or cells: CHO cells
Experimental: A dilution series of target proteins (i.e., PSMA, GCP3, CAIX, CAII) in the respective formulation buffer were separately prepared in a black 384-well plate (non-binding Greiner small volume plate). Test compounds functionalized with fluorescein were diluted to a concentration between 5 and 10 nM (5 μL) and incubated for 15 min with the protein (final volume corresponding to 10 µL). The fluorophore was excited at 485 nm, and anisotropy was measured at 535 nm on a Spectra Max Paradigm multimode plate reader (Tecan). The experiments were performed in triplicate. KD values measured using this FP method can differ from dissociation constants obtained by other physical methods (e.g., surface plasmon resonance, see section below).

[6] = test system: SK-RC-52 renal cell carcinoma cells; experiment: Flow cytometry on SK-RC-52 cells; assay type: cell-based; conditions: 100 nM
[7] = molecular target: T5, GCP3 (Homo sapiens, UniProt Q9Y3Q0); experiment: Fluorescence polarization (FP) affinity against GCP3; assay type: binding; conditions: fluoresceinated compounds
T5 construct: Avi-tag; made in house; host or cells: CHO cells
T5 sequence (Q9Y3Q0 whole entry): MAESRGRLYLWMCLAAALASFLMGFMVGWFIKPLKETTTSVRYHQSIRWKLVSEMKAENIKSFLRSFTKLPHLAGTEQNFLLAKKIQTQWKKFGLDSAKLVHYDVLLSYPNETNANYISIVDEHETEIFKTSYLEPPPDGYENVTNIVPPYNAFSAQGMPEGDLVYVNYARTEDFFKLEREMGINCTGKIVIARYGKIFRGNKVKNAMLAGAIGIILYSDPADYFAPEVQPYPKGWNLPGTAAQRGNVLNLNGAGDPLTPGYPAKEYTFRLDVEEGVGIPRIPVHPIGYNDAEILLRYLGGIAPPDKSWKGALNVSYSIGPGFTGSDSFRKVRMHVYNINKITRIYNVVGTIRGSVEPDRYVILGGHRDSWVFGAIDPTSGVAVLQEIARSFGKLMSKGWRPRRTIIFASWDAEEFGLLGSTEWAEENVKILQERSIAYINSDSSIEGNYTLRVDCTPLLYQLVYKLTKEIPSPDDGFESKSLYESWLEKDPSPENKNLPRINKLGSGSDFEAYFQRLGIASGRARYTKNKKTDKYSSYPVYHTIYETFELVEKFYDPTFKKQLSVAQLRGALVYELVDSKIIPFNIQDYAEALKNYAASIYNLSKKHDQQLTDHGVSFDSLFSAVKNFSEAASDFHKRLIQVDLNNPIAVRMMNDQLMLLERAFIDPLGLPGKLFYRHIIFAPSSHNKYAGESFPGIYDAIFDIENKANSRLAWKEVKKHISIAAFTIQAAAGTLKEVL
Experimental: as §1, with “The addition of the second building block (B423) enhances both affinity and selectivity for the target.” left out
as §2, with “RUs.” for “RUs. Cell binding of fluorescent ligands was evaluated using flow cytometry against antigen‐positive and antigen‐negative (wild‐type) cancer cells. in vitro tissue uptake of ^177Lu‐labelled DOTAGA PSMA‐radioligands was measured via autoradiography.”
as §4

SMILES: O=C(O)CC[C@H](NC(=O)N[C@@H](Cc1cccc(I)c1)C(=O)NCCCCCCNC(=S)Nc1ccc2c(c1)C(=O)OC21c2ccc(O)cc2Oc2cc(O)ccc21)C(=O)O [compound 3]
- Kd [2]: 99 nM
- binding to PSMA on the cell surface by flow cytometry [3]: only compound 5 was able to bind
- binding to human ACP3 by FP [4]: did not bind

SMILES: NS(=O)(=O)c1ccc(-c2cccc(C[C@H](NC(=O)CCC(=O)N[C@@H](CCCCNC(=S)Nc3ccc4c(c3)C(=O)OC43c4ccc(O)cc4Oc4cc(O)ccc43)C(=O)O)C(=O)NCC3(c4cccs4)CCOCC3)c2)cc1 [compound 20]
- Kd [5]: 2.46 nM

SMILES: O=C(O)CC[C@H](NC(=O)N[C@@H](Cc1ccc(I)cc1)C(=O)NCCCCCCNC(=S)Nc1ccc2c(c1)C(=O)OC21c2ccc(O)cc2Oc2cc(O)ccc21)C(=O)O [compound 1]
- Kd [2]: 87 nM
- Kd [7]: 81 nM
- binding to PSMA on the cell surface by flow cytometry [3]: only compound 5 was able to bind
- binding to human ACP3 by FP [4]: did not bind

Now from value to compound, other results behind:

- association rate (kon) on hCAIX by SPR [1]: fast association rates
- dissociation rate (koff) on hCAIX by SPR [1]: slower dissociation rate
- Kd [1]: 13 nM
SMILES: NS(=O)(=O)c1nnc(Nc2cccc(C[C@@H](NC(=O)CCC(=O)N[C@@H](CCCCNC(=O)CC[C@H](C(=O)O)N3CCN(CC(=O)O)CCN(CC(=O)O)CCN(CC(=O)O)CC3)C(=O)O)C(=O)NCC3(c4cccs4)CCOCC3)c2)s1 [compound 25]

- Kd [5]: 1.85 nM
SMILES: NS(=O)(=O)c1nnc(Nc2cccc(C[C@@H](NC(=O)CCC(=O)N[C@@H](CCCCNC(=S)Nc3ccc4c(c3)C(=O)OC43c4ccc(O)cc4Oc4cc(O)ccc43)C(=O)O)C(=O)NCC3(c4cccs4)CCOCC3)c2)s1 [compound 24]
- binding to CAIX on the cell surface by flow cytometry [6]: bound to the antigen expressed on the surface of cancer cells

- association rate (kon) on hCAIX by SPR [1]: fast association rates
- Kd [1]: 50 nM
SMILES: NS(=O)(=O)c1ccc(-c2cccc(C[C@@H](NC(=O)CCC(=O)N[C@@H](CCCCNC(=O)CC[C@H](C(=O)O)N3CCN(CC(=O)O)CCN(CC(=O)O)CCN(CC(=O)O)CC3)C(=O)O)C(=O)NCC3(c4cccs4)CCOCC3)c2)cc1 [compound 22]

- Kd [5]: 2.06 nM
SMILES: NS(=O)(=O)c1nnc(Nc2cccc(C[C@H](NC(=O)CCC(=O)N[C@@H](CCCCNC(=S)Nc3ccc4c(c3)C(=O)OC43c4ccc(O)cc4Oc4cc(O)ccc43)C(=O)O)C(=O)NCC3(c4cccs4)CCOCC3)c2)s1 [compound 23]
